Assay results as given in patent US20250213700A1, “COMPOUNDS, COMPOSITIONS, AND METHODS FOR CELL-SPECIFIC PHARMACOLOGY” (Duke University, priority 2022, published 2025).

What was measured:
[1] = tested on: +HTP somatostatin interneurons and -HTP neurons of V1 visual cortex; experiment: 2P calcium imaging of V1 visual responses after contralateral ventricle infusion, SOM-Cre mice; format: in vivo, mouse
Method: Top left: Mice expressing pan-neuronal GCaMP8s with SOM-specific ^+HTP. Window over V1. DART delivered via the contralateral ventricle. Bottom left: In-vivo and ex-vivo expression and dye capture. Right: Mice presented oriented visual gratings, 2P Ca^2+ imaging obtained before and 5-6 hr after infusion of 0.3 nmole Alexa647.1^DART.2+3 nmole YM90K.1^DART.2 (2 μL volume) into the contralateral ventricle.
Next, it was examined whether this strategy could deliver a pharmacologically active DART to genetically defined cells. A surgery was performed in which AAV DIO +HTPGPI was injected into the V1 visual cortex of SOM-Cre mice for cell-specific expression in somatostatin interneurons, along with a co-injected AAV-GCaMP8s virus for pan-neuronal neural activity monitoring. A cannula was implanted in the contralateral ventricle, and glass window over V1. Following surgical recovery, a mixture of YM90K.1DART.2+Alexa647.1DART.2 was infused. […] To test for pharmacological effects, 2P calcium imaging of +HTP and −HTP was performed while mice were presented with oriented gratings. A reduction in +HTP visual response was apparent 4 hours post DART infusion. This reduction persisted even after 24 hours post infusion.

[2] = tested on: endogenous GABAARs; experiment: all-optical assay of GABAAR antagonism in primary neuronal culture; format: cell-based, rat
[3] = 5-6 hr after infusion of 3 nmole with 0.3 nmole Alexa647.1DART.2

SMILES | responses in +HTP SOM cells [1, 3] | responses in -HTP putative pyramidal cells [1, 3] | +HTP visual response ([1]; 4 hours post DART infusion) | -HTP cells visual response ([1]; 24 hours post infusion) | +HTP cells visual response relative to pre-DART ([1]; 24 hours post infusion, 50% contrast) | increase in DW vs gabazine.1DART.2 [2] [fold] | increase in HTL50 vs gabazine.1DART.2 [2] [fold] | increase in Rx50 vs gabazine.1DART.2 [2] [fold] | DW (t=15 m) ([2]; ddHTP vs +HTP cells, 15 min, 15 uM GABA)
COc1cc(CCCCl)ccc1CCOCCNC(=O)c1ccc(CNC(=O)CCOCCOCCOCCOCCOCCOCCOCCOCCOCCOCCOCCOCCOCCOCCOCCOCCOCCOCCOCCOCCOCCOCCOCCOCCOCCOCCOCCOCCOCCOCCOCCOCCOCCOCCOCCOCCn2cc(COCCOCCOCCOCCOCCOCCNC(=O)CCCn3c(=O)c(=O)[nH]c4cc([N+](=O)[O-])c(-n5ccnc5)cc43)nn2)cc1 [YM90K.1DART.2] | reduced | unchanged or increased | reduction | no change or increase in visual response | decrease in visual response |  |  |  | 
COc1cc(CCCCl)ccc1CCOCCNC(=O)c1ccc(CNC(=O)CCOCCOCCOCCOCCOCCOCCOCCOCCOCCOCCOCCOCCOCCOCCOCCOCCOCCOCCOCCOCCOCCOCCOCCOCCOCCOCCOCCOCCOCCOCCOCCOCCOCCOCCOCCOCCn2cc(COCCOCCOCCOCCOCCOCCOCCCCCCOc3ccc(-c4nn(CCCCC(=O)O)c(=N)cc4C)cc3)nn2)cc1 [gabazine.7DART.2] |  |  |  |  |  | ~6 | ~3 | ~20 | 3,000
